Residues, ends and D or L forms follow the SMILES beside them. *: point of attachment. Myristoyl = CCCCCCCCCCCCCC(=O)*
How the values were obtained:
[1] = test system: HL-60 clone 15 cells; experiment: Inhibition of eosinophil peroxidase (EPO) release from HL-60 clone 15 cells; type: cell-based, human; settings: at 50 μM of test peptide; 100 nM PMA 2 hours
Excerpt: The human promyelocytic cell line (Fischkoff S A, Graded increase in probability of eosinophilic differentiation of HL-60 promyelocytic leukemia cells induced by culture under alkaline conditions. Leuk. Res., 12:679-686, 1988; Rosenberg H F, Ackerman S J, Tenen D G. Human eosinophil cationic protein: molecular cloning of a cytotoxin and helminthotoxin with ribonuclease activity. J. Exp. Med., 170:163-176, 1989), HL-60 clone 15, is eosinophil-like promyelocytic human cell line which was purchased from American Type Culture Collection (ATCC) Rockville, Md. (catalog #CRL-1964). The cells were maintained in medium consisting of RPMI 1640 with glutamine supplemented with 10% heat inactivated fetal bovine serum (Gibco, Carlsbad, Calif.), 50 IU/mL penicillin, 50 μg/mL streptomycin, and 25 mM HEPES buffer, pH 7.8 at 37° C. in an atmosphere containing 5% CO2. Final differentiation of an eosinophil-like phenotype was initiated by culturing the cells at 5×10^5 cells/mL in the above medium containing 0.5 mM butyric acid (Sigma-Aldrich) for 5 days as previously described by Tiffany H L, Li F, and Rosenberg H F, Hyperglycosylation of eosinophil ribonuclease in a promyelocytic leukemia cell line and in differentiated peripheral blood progenitor cells J. Leukoc. Biol. 58: 49-54, 1995; and by Tiffany H L, Alkhatib G, Combadiere C, Berger E A, and Murphy P M., CC Chemokine receptors are differentially regulated by IL-5 during maturation of eosinophilic HL-60 cells. J. Immunol. 160:1385-1392, 1998. The cells were washed and resuspended at 2.5×10^6 per mL in phenol free RPMI-1640 (Cellgro; Mediatech Inc.). Aliquots of cells in 15 mL plastic tubes were preincubated with indicated concentration of test peptide (dissolved in PBS, pH 7.0) for 10 minutes followed by treatment of the cells with 100 nM PMA for 2 hours. The reaction was terminated by placing the tubes on ice and centrifugation of cells at 400 g for 5 min at 4° C. The eosinophil peroxidase (EPO) activity released by HL-60 clone 15 cells was assayed using TMB according to a previously established technique Paige et al (see above) and by Lacy P, Mahmudi-Azer S, Bablitz B, Hagen S C, Velazquez J R, Man S F, Moqbel R. Rapid mobilization of intracellularly stored RANTES in response to interferon-gamma in human eosinophils. Blood 94:23-32, 1999. Briefly, add 50 μL aliquots of the supernatant to 96-well microtiter plate followed by addition of 100 μL of the tetramethylbenzidine (TMB) substrate solution and incubate at room temperature for 15 minutes. The reaction was terminated by addition of 50 μL of 1.0 M sulfuric acid and absorbance was read at 450 nm in a spectrophotometric microplate reader (Molecular Devices, Sunnyvale, Calif.). The amount of secreted EPO was expressed as percentage of total content using the amount obtained in the same number of triton X-100-lysed cells.
Because standard EPO from HL-60 clone 15 cells was not available to use for quantification, we measured both released and intracellular (from lysed cells) levels of EPO, and expressed the released EPO as a percentage of total (intracellular and released) for each. To measure intracellular EPO in HL-60 clone 15 cells, appropriate aliquots of 0.1% triton X-100-lysed cells were taken for quantification of intracellular EPO as described above. All data are expressed as percentage of control to minimize variability between cultures.

[2] = test system: human neutrophils; experiment: Human neutrophil chemotactic migration assay; type: cell-based; settings: test peptide 50 μM; for Neutrophil Migration (% Inhibition), LTB4: LTB4 100 nM; for Neutrophil Migration (% Inhibition), LTB4 / Neutrophil Migration (% Inhibition), fMLP: 0 = inactive; for Neutrophil Migration (% Inhibition), PAF: PAF 100 nM; for Neutrophil Migration (% Inhibition), fMLP: fMLP 100 nM
Procedure: Human neutrophils were isolated from heparinized whole blood collected from healthy adult donors via cephalic venipuncture by a slightly modified method as described by Akasaki et al., 1999 (Akasaki T, Koga H, and Sumimoto H., Phosphoinositide 3-kinase-dependent and -independent activation of the small GTPase Rac2 in human neutrophils, J. Biol. Chem. 274:18055-18059, 1999). The blood was mixed with dextran (final concentration 1.4% dextran) and then allowed to settle for 60 minutes, after which time the leukocyte rich plasma was collected and layered onto 5 mL of Ficoll-Paque PLUS in 15 ml, conical tubes. The plasma was centrifuged at 1800 rpm for 20 minutes at room temperature. The residual erythrocytes were lysed utilizing a hypotonic saline and the remaining neutrophils were re-suspended in Hank's balanced salt solution containing 20 mM HEPES and 8.9 mM sodium bicarbonate without calcium or magnesium (HBSS), yielding neutrophils that were greater than 98% pure and greater than 99% viable.
Neutrophil migration assay was performed according to the method described by Frevert C W, Wong V A, Goodman R B, Goodwin R, and Martin T R., Rapid fluorescence-based measurement of neutrophil migration in vitro, J. Immunol. Methods, 213:41-52, 1998. Human neutrophils were labeled with the fluorescent dye calcein for 30 minutes at room temperature. Cells were then washed and resuspended in a migration buffer containing HBSS with 2% FCS. Cells were treated with buffer alone or with the indicated test peptide (50 μM) for 30 minutes at 37° C. Treated cells (1×10^4 cells) were then placed on the upper side of a ChemoTx® chemotaxis plate (Neuroprobe, Gaithersburg, Md.) membrane (2 μm pore size). Lower wells of the plate were filled with migration buffer alone or with buffer containing fMLP (100 nM), LTB4 (100 nM), or PAF (100 nM). Wells containing 1×10^4 labeled cells were used as standards to calculate migration percentage. Cells were allowed to migrate for 1 hour at 37° C. After incubation, cells on the top of the filter were washed away with PBS. Followed by this, 0.5 mM EDTA was added to the top of the filter for 5 min to detach adherent cells and the membrane was again washed. The plate was then centrifuged at 1000 rpm for 1 min. The filter was removed and the fluorescence was measured in the lower wells (485 nm excitation, 530 nm emission wavelength) using an fMax fluorescence plate reader (Molecular Devices, Sunnyvale, Calif.). Percent migration was determined by dividing the fluorescence of each well by the fluorescence of the standard wells containing 1×10^4 labeled cells. A lesser number of migrated neutrophils in the bottom compartment is indicative of the test peptide being an inhibitor of inflammation.

Structure (SMILES)	% Inhibition EPO [1] [%]	Neutrophil Migration (% Inhibition), LTB4 [2] [%]	Neutrophil Migration (% Inhibition), PAF [2] [%]	Neutrophil Migration (% Inhibition), fMLP [2] [%]
CCCCCCCCCCCCCC(=O)NCC(=O)N[C@@H](C)C(=O)N[C@@H](CCC(N)=O)C(=O)N[C@@H](Cc1ccccc1)C(=O)N[C@@H](CO)C(=O)N[C@@H](CCCCN)C(=O)N[C@H](C(=O)N[C@@H](C)C(=O)N[C@@H](C)C(=O)N[C@@H](CCCCN)C(=O)NCC(=O)N[C@@H](CCC(=O)O)C(=O)N[C@@H](C)C(=O)N[C@@H](C)C(=O)N[C@@H](C)C(=O)N[C@@H](CCC(=O)O)C(=O)N[C@@H](CCCNC(=N)N)C(=O)N1CCC[C@H]1C(=O)NCC(=O)N[C@@H](CCC(=O)O)C(=O)N[C@@H](C)C(=O)N[C@@H](C)C(=O)N[C@H](C(=O)N[C@@H](C)C(=O)O)C(C)C)[C@@H](C)O [MANS peptide] (Myristoyl-GAQFSKTAAKGEAAAERPGEAAVA-OH; C-terminus assumed)	46.1	91.8	86.4	90.0
CCCCCCCCCCCCCC(=O)NCC(=O)N[C@H](C(=O)N[C@@H](C)C(=O)N1CCC[C@H]1C(=O)N[C@@H](C)C(=O)N[C@@H](C)C(=O)N[C@@H](CCC(=O)O)C(=O)NCC(=O)N[C@@H](C)C(=O)NCC(=O)N[C@@H](C)C(=O)N[C@@H](CCC(=O)O)C(=O)N[C@H](C(=O)N[C@@H](CCCCN)C(=O)N[C@@H](CCCNC(=N)N)C(=O)N[C@@H](C)C(=O)N[C@@H](CO)C(=O)N[C@@H](C)C(=O)N[C@@H](CCC(=O)O)C(=O)N[C@@H](C)C(=O)N[C@@H](CCCCN)C(=O)N[C@@H](CCC(N)=O)C(=O)N[C@@H](C)C(=O)N[C@@H](Cc1ccccc1)C(=O)O)C(C)C)[C@@H](C)O [RNS peptide, reference compound] (Myristoyl-GTAPAAEGAGAEVKRASAEAKQAF-OH; C-terminus assumed)	0	0	62.1	0.7
CCCCCCCCCCCCCC(=O)NCC(=O)N[C@@H](C)C(=O)N[C@@H](CCC(N)=O)C(=O)N[C@@H](Cc1ccccc1)C(=O)N[C@@H](CO)C(=O)N[C@@H](CCCCN)C(=O)N[C@H](C(=O)N[C@@H](C)C(=O)N[C@@H](C)C(=O)N[C@@H](CCCCN)C(=O)NCC(=O)N[C@@H](CCC(=O)O)C(=O)O)[C@@H](C)O [SEQ ID NO: 13, N-myristoyl-GAQFSKTAAKGE] (Myristoyl-GAQFSKTAAKGE-OH; C-terminus assumed)	25.2	82.7	85.7	81.8
CCCCCCCCCCCCCC(=O)NCC(=O)N[C@@H](C)C(=O)N[C@@H](CCC(N)=O)C(=O)N[C@@H](Cc1ccccc1)C(=O)N[C@@H](CO)C(=O)N[C@@H](CCCCN)C(=O)N[C@H](C(=O)N[C@@H](C)C(=O)N[C@@H](C)C(=O)N[C@@H](CCCCN)C(=O)O)[C@@H](C)O [SEQ ID NO: 15, N-myristoyl-GAQFSKTAAK] (Myristoyl-GAQFSKTAAK-OH; C-terminus assumed)	37.4	85.5	87.2	88.6

From US8501911B2, “Methods of reducing inflammation and mucus hypersecretion” (Biomarck Pharmaceuticals, Ltd, priority 1999, dated 2013)
